What was measured:
Format in all cases: cell-based
RFP-DDX5 = biological target: T1, RFP-DDX5 (Homo sapiens, UniProt P17844+P62942); assay: Droplet formation, live cell imaging of HeLa cells expressing GFP-FKBP12 and RFP-DDX5, 1,6-hexanediol; conditions: 10 μM, 13 hours; disappeared after addition of 5% 1,6-hexanediol
T1 construct: expressed in transfected cells; host or cells: HeLa
Method: (§1) HeLa cells transiently expressing GFP-FKBP12 and RFP-DDX5, or GFP-FKBP12 and RFP-p62 were treated with AUTAC2-2G added in such an amount as to achieve a concentration of 10 μM for 13 hours. The treated cells were subjected to live cell imaging by a fluorescence microscope, and fluorescence derived from GFP and RFP was continuously observed. On the way, 5% 1,6-hexanediol was added 5 minutes after the start of observation to observe whether a dot-like structure in the field of view disappeared.
(§2) 1,6-Hexanediol is known to have an action of eliminating droplets, and this makes it possible to confirm whether the dot-like structure in the field of view of the microscope is a droplet.

RFP-p62 = biological target: T2, RFP-p62 (Homo sapiens, UniProt P62942+Q13501); assay: Droplet formation, live cell imaging of HeLa cells expressing GFP-FKBP12 and RFP-p62, 1,6-hexanediol; conditions: 10 μM, 13 hours; disappeared after addition of 5% 1,6-hexanediol
T2 construct: expressed in transfected cells; host or cells: HeLa
Method: as §1, §2

GFP-αSyn-FKBP^F36V = biological target: T3, GFP-αSyn-FKBP^F36V (Homo sapiens, UniProt P62942, F37V); assay: Mutant FKBP-tagged synuclein degradation test (GFP fluorescence microscopy, HeLa cells); conditions: 48 hours, compared with untreated group (DMSO)
T3 construct: expressed in transfected cells; host or cells: HeLa
Method: HeLa cells transiently expressing GFP-α-synuclein tagged with a mutant FKBP (GFP-αSyn-FKBP^F36V) were treated with SLF′-AUTAC for 48 hours. In each of the wells of non-treated cells and treated cells, GFP fluorescence was photographed with a fluorescence microscope. Degradation of GFP-αSyn-FKBP^F36V was evaluated from the GFP fluorescence intensity.

DDX5 and p62 = biological target: T4, DDX5 and p62 (Homo sapiens, UniProt P17844); assay: Droplet formation of DDX5 and p62, immunostaining of HeLa cells expressing GFP-FKBP^F36V; conditions: 1 μM, 12 hours, fixed cells, anti-DDX5 and anti-p62 antibody
T4 construct: endogenous in cells; host or cells: HeLa (transiently expressing GFP-FKBP^F36V)
Excerpt: Such a “droplet” can be confirmed by labeling a DEAD-box RNA helicase and/or p62 with a fluorescent label or the like, introducing a test compound into a system in which they exist, preferably treating cells expressing at least one of these with the test compound, and observing the presence of a substance visualized by the label with a fluorescence microscope or the like. In addition, for the purpose of confirming the properties of the liquid in more detail, it is preferable to combine this method with the fluorescence recovery after photobleaching (FRAP).
HeLa cells transiently expressing GFP tagged with a mutant FKBP (GFP-FKBP^F36V) were treated with 1 μM SLF′-AUTAC for 12 hours. The treated cells were fixed with 4% paraformaldehyde, then permeabilized with 0.1% TritonX-100/PBS, blocked with 1% BSA/PBS, immersed in PBS containing 1% rabbit-derived anti-DDX5 antibody and 1% mouse-derived anti-p62 antibody, and incubated at 4° C. overnight. Subsequently, the cells were immersed in PBS containing 1% AlexaFluor555-labeled anti-rabbit IgG and 1% AlexaFluor555-labeled anti-mouse IgG, and incubated at rccm temperature for 1 hour.

T3 sequence (P62942 whole entry F37V): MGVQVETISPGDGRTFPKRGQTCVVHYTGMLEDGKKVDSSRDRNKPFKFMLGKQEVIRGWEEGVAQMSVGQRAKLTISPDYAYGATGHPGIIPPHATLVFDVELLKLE
T4 sequence (P17844 whole entry): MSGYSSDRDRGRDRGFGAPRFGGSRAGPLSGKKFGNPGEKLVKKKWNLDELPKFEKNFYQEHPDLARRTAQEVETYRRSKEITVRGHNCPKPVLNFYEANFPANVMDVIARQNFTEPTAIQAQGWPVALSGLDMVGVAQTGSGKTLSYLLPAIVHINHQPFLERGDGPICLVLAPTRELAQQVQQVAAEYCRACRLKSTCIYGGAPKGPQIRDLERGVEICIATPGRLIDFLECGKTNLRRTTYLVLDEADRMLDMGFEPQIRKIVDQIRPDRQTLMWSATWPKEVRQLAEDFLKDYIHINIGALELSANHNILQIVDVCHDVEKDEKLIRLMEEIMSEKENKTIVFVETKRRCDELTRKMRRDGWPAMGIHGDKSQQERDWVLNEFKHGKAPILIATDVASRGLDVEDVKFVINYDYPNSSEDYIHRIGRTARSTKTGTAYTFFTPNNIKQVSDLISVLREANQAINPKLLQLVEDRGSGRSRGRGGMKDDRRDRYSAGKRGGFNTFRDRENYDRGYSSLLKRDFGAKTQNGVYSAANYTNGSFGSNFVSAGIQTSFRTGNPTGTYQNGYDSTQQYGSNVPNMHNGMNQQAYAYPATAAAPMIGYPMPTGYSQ
T4 sequence (Q13501 2-440 partner): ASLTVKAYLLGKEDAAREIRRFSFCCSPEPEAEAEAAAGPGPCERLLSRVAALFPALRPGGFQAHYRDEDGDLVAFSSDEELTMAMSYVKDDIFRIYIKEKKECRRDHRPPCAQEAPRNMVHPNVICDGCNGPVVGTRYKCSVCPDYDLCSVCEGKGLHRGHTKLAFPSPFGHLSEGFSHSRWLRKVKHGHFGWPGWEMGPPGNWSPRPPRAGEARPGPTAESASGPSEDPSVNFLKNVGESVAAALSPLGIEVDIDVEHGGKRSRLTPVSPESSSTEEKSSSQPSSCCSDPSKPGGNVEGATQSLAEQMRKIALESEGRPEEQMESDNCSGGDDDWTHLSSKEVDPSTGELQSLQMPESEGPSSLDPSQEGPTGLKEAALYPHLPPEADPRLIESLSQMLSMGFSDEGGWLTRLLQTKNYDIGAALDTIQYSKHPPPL
T4 sequence (P62942 2-108 F37V partner): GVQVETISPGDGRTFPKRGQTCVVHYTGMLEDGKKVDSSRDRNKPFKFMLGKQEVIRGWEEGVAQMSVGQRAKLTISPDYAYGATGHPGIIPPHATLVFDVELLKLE
T1 sequence (P17844 whole entry): as the sequence (P17844 whole entry) above
T1 sequence (P62942 whole entry): as the sequence (P62942 whole entry F37V) above, with V37F counted along it
T2 sequence (Q13501 whole entry): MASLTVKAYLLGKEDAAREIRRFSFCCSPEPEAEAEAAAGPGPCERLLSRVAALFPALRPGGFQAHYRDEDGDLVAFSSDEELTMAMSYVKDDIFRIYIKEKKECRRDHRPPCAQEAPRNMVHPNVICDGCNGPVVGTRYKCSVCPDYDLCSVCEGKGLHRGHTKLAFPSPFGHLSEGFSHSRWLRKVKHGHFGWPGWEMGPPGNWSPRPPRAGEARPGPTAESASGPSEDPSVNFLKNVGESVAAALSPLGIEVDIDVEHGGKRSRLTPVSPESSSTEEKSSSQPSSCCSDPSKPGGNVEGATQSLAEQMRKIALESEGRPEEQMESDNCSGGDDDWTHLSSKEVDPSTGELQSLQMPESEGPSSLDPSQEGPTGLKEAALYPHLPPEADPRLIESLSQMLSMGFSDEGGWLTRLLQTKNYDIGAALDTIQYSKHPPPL
T2 sequence (P62942 whole entry): as the sequence (P62942 whole entry F37V) above, with V37F counted along it

SMILES | dot-like structure (droplet) containing GFP-FKBP12 and RFP-DDX5 (RFP-DDX5) | dot-like structure (droplet) containing GFP-FKBP12 and RFP-p62 (RFP-p62) | degradation of GFP-αSyn-FKBP^F36V (GFP fluorescence intensity) (GFP-αSyn-FKBP^F36V; 1 μM) | degradation of GFP-αSyn-FKBP^F36V (GFP fluorescence intensity) (GFP-αSyn-FKBP^F36V; 10 μM) | formation of a droplet containing DDX5 and p62 (DDX5 and p62)
CCC(C)(C)C(=O)C(=O)N1CCCC[C@H]1C(=O)O[C@H](CCc1ccc(OC)c(OC)c1)c1cccc(NC(=O)CCC(=O)NCCCOCCOCCOCCCn2cc(-c3nc4c(=O)[nH]c(N)nc4n3Cc3ccc(F)cc3)cn2)c1 [AUTAC2-2G] | a dot-like structure containing GFP-FKBP12 and RFP-DDX5 | a dot-like structure containing GFP-FKBP12 and RFP-p62 were observed | – | – | –
CC[C@H](C(=O)N1CCCC[C@H]1C(=O)O[C@H](CCc1ccc(OC)c(OC)c1)c1cccc(OCC(=O)NCCCOCCOCCOCCCn2cc(-c3nc4c(=O)[nH]c(N)nc4n3Cc3ccc(F)cc3)cn2)c1)c1cc(OC)c(OC)c(OC)c1 [SLF′-AUTAC] | – | – | the degradation of GFP-αSyn-FKBP^F36V was observed | the degradation of GFP-αSyn-FKBP^F36V was observed | DDX5 and p62 formed droplets in the cells

From patent publication US20260276625A1, “SCREENING METHOD FOR COMPOUND INDUCING AUTOPHAGY” (TOHOKU UNIVERSITY, priority 2023, published 2026)
